Data from PMC8286619 (BMC Pharmacology & Toxicology, 2021).

Molecular target: T1, xanthine oxidase (XO) (Bos taurus, UniProt P80457)
T1 construct: gene XDH
Assay: biolayer interferometry, biotinylated XO on SA sensor (also activates the purified enzyme, EC50 […])
Assay type: binding

T1 sequence (P80457 2-1332): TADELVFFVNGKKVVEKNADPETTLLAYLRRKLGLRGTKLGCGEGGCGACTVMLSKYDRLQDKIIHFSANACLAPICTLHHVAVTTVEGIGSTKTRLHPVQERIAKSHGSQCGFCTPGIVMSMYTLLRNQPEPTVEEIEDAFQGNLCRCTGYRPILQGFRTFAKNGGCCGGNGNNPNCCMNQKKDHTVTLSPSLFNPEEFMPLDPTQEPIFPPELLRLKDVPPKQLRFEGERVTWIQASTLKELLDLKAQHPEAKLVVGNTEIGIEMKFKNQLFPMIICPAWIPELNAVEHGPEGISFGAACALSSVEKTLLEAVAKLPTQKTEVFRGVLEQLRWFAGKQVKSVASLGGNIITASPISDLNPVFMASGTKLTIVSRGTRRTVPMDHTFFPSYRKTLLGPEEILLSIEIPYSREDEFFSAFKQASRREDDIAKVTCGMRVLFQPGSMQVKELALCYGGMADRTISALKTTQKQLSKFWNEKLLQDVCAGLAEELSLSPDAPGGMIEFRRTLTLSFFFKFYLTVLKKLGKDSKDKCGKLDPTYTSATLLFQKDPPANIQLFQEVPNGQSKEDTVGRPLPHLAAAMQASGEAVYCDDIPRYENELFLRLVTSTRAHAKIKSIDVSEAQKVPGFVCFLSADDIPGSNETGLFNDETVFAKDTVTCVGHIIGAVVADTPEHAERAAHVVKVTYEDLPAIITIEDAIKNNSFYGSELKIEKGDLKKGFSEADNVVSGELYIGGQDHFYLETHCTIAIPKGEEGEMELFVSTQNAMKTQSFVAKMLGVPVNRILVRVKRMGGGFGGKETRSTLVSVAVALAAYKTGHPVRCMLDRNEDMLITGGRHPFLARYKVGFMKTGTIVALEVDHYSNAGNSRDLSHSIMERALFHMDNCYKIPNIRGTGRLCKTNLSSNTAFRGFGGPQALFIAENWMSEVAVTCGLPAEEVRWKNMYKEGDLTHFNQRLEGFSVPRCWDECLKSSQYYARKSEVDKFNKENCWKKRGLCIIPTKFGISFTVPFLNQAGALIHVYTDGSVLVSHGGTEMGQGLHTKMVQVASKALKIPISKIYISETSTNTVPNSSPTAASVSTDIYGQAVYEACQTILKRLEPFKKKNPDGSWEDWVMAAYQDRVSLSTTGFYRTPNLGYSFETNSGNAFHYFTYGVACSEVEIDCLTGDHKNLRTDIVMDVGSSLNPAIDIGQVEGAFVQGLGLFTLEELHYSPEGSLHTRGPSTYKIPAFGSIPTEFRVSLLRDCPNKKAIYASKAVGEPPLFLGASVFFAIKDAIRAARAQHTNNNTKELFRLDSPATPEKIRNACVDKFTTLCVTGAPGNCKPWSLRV

## CC1=CC(=O)c2c(O)cccc2C1=O [PLB, Plumbagin]
  Kd: 499 nM
